Assay results taken from publication PMC4178217, “Quinoline 3-sulfonamides inhibit lactate dehydrogenase A and reverse aerobic glycolysis in cancer cells” (Cancer & Metabolism, 2013).
Where “and” joins values, the source holds several entries; their conditions need not be identical. Equal entries are not always repeated.

System: Snu398 cells
Conditions: Snu-398 conditioned medium, 10 μM, 24 h
Experimental: Ten million Snu398 or HepG2 cells per flask were plated in R10 medium in T150 tissue culture flasks and allowed to attach overnight. The following morning, medium was replaced with medium containing either DMSO or 10 μM LDHA inhibitor, and cells were incubated for 24 h at 37°C. The conditioned medium was collected and cells were washed, lifted by trypsinization and pelleted. Both medium and cell samples were submitted for mass spectroscopy (MS) analysis of over 500 individual metabolites. All samples were prepared in replicates of five.

## COc1ncc(-c2ccc3c(Nc4cc(C(=O)O)cc(C5CCCC5)c4)c(S(=O)(=O)NC4CC4)cnc3c2)c(OC)n1 [Compound 2]
  fold change 1-oleoylglycerophosphocholine: 1.05
  fold change 1-palmitoleoylglycerophosphocholine*: 0.90
  fold change 1-palmitoylglycerophosphocholine: 1.01
  fold change 1-stearoylglycerophosphocholine: 1.19
  fold change 2'-O-methylguanosine: 0.80
  fold change 2-aminobutyrate: 0.99
  fold change 2-hydroxybutyrate (AHB): 0.99
  fold change 2-hydroxyglutarate: 1.18
  fold change 2-methylbutyroylcarnitine: 1.01
  fold change 2-methylbutyrylglycine: 1.13
  fold change 2-oleoylglycerophosphocholine*: 0.98
  fold change 2-palmitoylglycerophosphocholine*: 1.26
  fold change 2-stearoylglycerophosphocholine*: 1.42
  fold change 3-(4-hydroxyphenyl)lactate: 0.97
  fold change 3-dehydrocarnitine*: 1.02
  fold change 3-indoxyl sulfate: 1.06
  fold change 3-methyl-2-oxobutyrate: 1.05
  fold change 3-methyl-2-oxovalerate: 1.03
  fold change 4-acetamidobutanoate: 0.90
  fold change 4-guanidinobutanoate: 0.77
  fold change 4-methyl-2-oxopentanoate: 1.21
  fold change 5-oxoproline: 1.19
  fold change 6'-sialyllactose: 1.11
  fold change C-glycosyltryptophan*: 0.98
  fold change HEPES: 0.97
  fold change Isobar: 2-propylpentanoic acid, 2-ethylhexanoic acid: 1.15
  fold change N1-methyladenosine: 1.01
  fold change N1-methylguanosine: 0.95
  fold change N6-carbamoylthreonyladenosine: 0.91
  fold change N-acetylaspartate (NAA): 0.99
  fold change N-acetylneuraminate: 0.79
  fold change N-acetylornithine: 1.11
  fold change X - 02952: 0.28
  fold change X - 02973: 1.02
  fold change X - 03090: 1.76
  fold change X - 04015: 1.25
  fold change X - 04133: 1.17
  fold change X - 04135: 1.33
  fold change X - 04148: 1.14
  fold change X - 04252: 0.37
  fold change X - 04357: 3.15
  fold change X - 05907: 1.01
  fold change X - 06126: 0.91
  fold change X - 06911: 0.81
  fold change X - 08172: 1.18
  fold change X - 08889: 1.38
  fold change X - 08895: 0.98
  fold change X - 09008: 1.34
  fold change X - 09026: 1.05
  fold change X - 10475: 1.45
  fold change X - 10476: 1.32
  fold change X - 10634: 0.42
  fold change X - 10740: 0.87
  fold change X - 10869: 0.69
  fold change X - 11081: 1.19
  fold change X - 11315: 1.04
  fold change X - 11533: 0.87
  fold change X - 11593: 0.89
  fold change X - 11787: 0.94
  fold change X - 12013: 0.89
  fold change X - 12015: 1.01
  fold change X - 12117: 1.10
  fold change X - 12216: 0.96
  fold change X - 12339: 1.00
  fold change X - 12435: 0.96
  fold change X - 12602: 0.99
  fold change X - 12729: 1.00
  fold change X - 12749: 0.94
  fold change X - 12776: 1.11
  fold change X - 12786: 2.02
  fold change X - 12792: 1.10
  fold change X - 12799: 0.97
  fold change X - 12944: 1.00
  fold change X - 13100: 0.98
  fold change X - 13103: 0.98
  fold change X - 13104: 1.21
  fold change X - 13110: 1.01
  fold change X - 13115: 0.80
  fold change X - 13117: 0.96
  fold change X - 13166: 0.94
  fold change X - 13483: 0.87
  fold change X - 13491: 1.35
  fold change X - 13494: 1.24
  fold change X - 13496: 1.00
  fold change X - 13507: 1.11
  fold change X - 13553: 1.09
  fold change X - 13581: 2.54
  fold change X - 13857: 0.86
  fold change X - 14056: 1.73
  fold change X - 14574: 1.45
  fold change X - 14588: 0.84
  fold change X - 15558: 1.10
  fold change X - 15559: 1.21
  fold change X - 15562: 1.10
  fold change X - 15563: 1.18
  fold change X - 15678: 1.19
  fold change X - 15808: 1.12
  fold change X - 16103: 0.95
  fold change X - 16116: 0.82
  fold change X - 16200: 1.20
  fold change X - 16206: 1.03
  fold change X - 16439: 1.19
  fold change X - 16444: 1.03
  fold change X - 17112: 0.96
  fold change X - 17430: 1.10
  fold change acetylcarnitine: 0.97
  fold change acetylphosphate: 1.00
  fold change alanine: 1.20
  fold change alanylglutamine: 0.94
  fold change allantoin: 1.08
  fold change arabitol: 1.09
  fold change arachidonate (20:4n6): 1.01
  fold change arginine: 0.98
  fold change asparagine: 0.74
  fold change aspartate: 1.09
  fold change aspartylleucine: 0.96
  fold change beta-alanine: 0.86
  fold change beta-hydroxyisovalerate: 0.93
  fold change beta-hydroxypyruvate: 1.05
  fold change betaine: 1.00
  fold change biotin: 0.97
  fold change butyrylcarnitine: 0.76
  fold change caproate (6:0): 1.01
  fold change caprylate (8:0): 1.04
  fold change carnitine: 0.93
  fold change catechol sulfate: 1.01
  fold change choline: 0.97
  fold change citrate: 1.02
  fold change citrulline: 0.95
  fold change creatine: 1.01
  fold change creatinine: 1.07
  fold change cyclo(leu-ala): 0.93
  fold change cysteine: 1.01
  fold change cysteine sulfinic acid: 0.95
  fold change cysteine-glutathione disulfide: 1.41
  fold change deoxycarnitine: 0.95
  fold change dimethyl sulfoxide*: 1.03
  fold change dimethylarginine (SDMA + ADMA): 1.30
  fold change docosahexaenoate (DHA; 22:6n3): 1.03
  fold change docosapentaenoate (n3 DPA; 22:5n3): 0.89
  fold change erythritol: 1.01
  fold change erythronate*: 0.96
  fold change ethanolamine: 1.09
  fold change folate: 1.00
  fold change fructose: 1.01
  fold change fumarate: 0.99
  fold change gamma-glutamylisoleucine*: 0.74
  fold change gamma-glutamylleucine: 0.89
  fold change gamma-glutamylphenylalanine: 1.18
  fold change gamma-glutamylvaline: 0.85
  fold change glucose: 1.07
  fold change glutamate: 1.05
  fold change glutamine: 1.15
  fold change glycerate: 1.15
  fold change glycerol: 1.10
  fold change glycerol 3-phosphate (G3P): 0.95
  fold change glycerophosphorylcholine (GPC): 0.86
  fold change glycine: 1.06
  fold change glycochenodeoxycholate: 0.90
  fold change glycocholate: 1.02
  fold change glycylglycine: 0.90
  fold change glycylleucine: 0.84
  fold change glycyltyrosine: 0.99
  fold change glycylvaline: 0.96
  fold change heme*: 0.94
  fold change hexadecanedioate: 1.07
  fold change hippurate: 0.98
  fold change histidine: 1.01
  fold change homostachydrine*: 1.01
  fold change hydroquinone: 0.85
  fold change indolelactate: 1.02
  fold change isobutyrylcarnitine: 1.03
  fold change isoleucine: 0.96
  fold change isovalerate: 0.68
  fold change isovalerylcarnitine: 1.02
  fold change kynurenate: 1.10
  fold change kynurenine: 1.07
  fold change lactate: 0.94
  fold change leucine: 0.95
  fold change lysine: 0.51
  fold change lysylleucine: 0.85
  fold change malate: 0.95
  fold change mannitol: 0.82
  fold change methionine: 0.94
  fold change myo-inositol: 0.98
  fold change nicotinamide: 0.87
  fold change ornithine: 0.80
  fold change p-aminobenzoate (PABA): 0.98
  fold change p-cresol sulfate: 0.96
  fold change palmitoyl sphingomyelin: 0.96
  fold change pantothenate: 0.98
  fold change phenol red: 0.99
  fold change phenol sulfate: 1.00
  fold change phenylacetylglycine: 0.95
  fold change phenylalanine: 0.89
  fold change phosphate: 1.01
  fold change pipecolate: 1.02
  fold change pro-hydroxy-pro: 1.06
  fold change proline: 1.13
  fold change propionylcarnitine: 0.95
  fold change pseudouridine: 1.02
  fold change putrescine: 0.82
  fold change pyridoxate: 0.95
  fold change pyridoxine (Vitamin B6): 1.02
  fold change pyruvate: 3 and 2.66
  fold change ribitol: 1.06
  fold change riboflavin (Vitamin B2): 1.02
  fold change scyllo-inositol: 0.89
  fold change serine: 0.84
  fold change serotonin (5HT): 1.03
  fold change sorbitol: 0.98
  fold change succinate: 0.98
  fold change taurocholate: 0.89
  fold change taurodeoxycholate: 0.96
  fold change tetradecanedioate: 0.80
  fold change thiamin (Vitamin B1): 1.12
  fold change threitol: 0.96
  fold change threonine: 0.96
  fold change trans-4-hydroxyproline: 1.06
  fold change tryptophan: 0.90
  fold change tyrosine: 0.91
  fold change uracil: 0.99
  fold change urea: 1.10
  fold change uridine: 1.20
  fold change valerylcarnitine: 0.97
  fold change valine: 0.95
  fold change xylitol: 1.13
